The subject of one series is A. baumannii ATCC 19606. Particulars: ATCC 19606. In outline: (§1)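 Mid-log cultures grown in Mueller Hinton broth at 37° C were tested by 2-fold broth microdilution at 5×10^5 CFU/mL final. Compounds were dissolved in water and tested over a final range of 32 to 0.015 μg/mL.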
The test system of series [1] is S. aureus ATCC 25923, MSSA. Particulars: ATCC 25923. In outline: as §1
Series [2] relates to P. aeruginosa GN_105, PmxR. Particulars: GN 105, PmxR. The method in brief:
as §1

In series [3] the test system is P. aeruginosa GN_043, PmxR. Particulars: P. aeruginosa GN_043, PmxR. In outline: as §1
Series [4] deals with K. pneumoniae GN_106, PmxR. Particulars: GN 106, PmxR. In outline:
as §1

Series [5] has as its system K. pneumoniae GN_102 PmxR. Particulars: GN 102 PmxR. The method in brief:
as §1

The subject of another series is E. coli ATCC 25922. Particulars: ATCC 25922. In outline: as §1
Series [6] concerns K. pneumoniae ATCC 700603, MDR. Particulars: ATCC 700603. In outline:
as §1

A further series relates to K. pneumoniae ATCC 13883. Particulars: ATCC 13883. In outline:
as §1

Another series concerns A. baumannii GN_093 PmxR. Particulars: GN 093 PmxR. The method in brief: as §1
The test system of series [7] is K. pneumoniae ATCC BAA-2146, NDM-1 pos. Particulars: ATCC BAA-2146. In outline: as §1
The subject of the next series is P. aeruginosa ATCC 27853. Particulars: ATCC 27853. The method in brief:
as §1

The nature of series [8]: in vitro. Particulars: human. In outline: (§2)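 Compound exposure lasted 24 h, following 24 h attachment of 4000 cells/well at 37° C under 5% CO2.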
Series [9] is described as follows: in vitro. Particulars: human. The method in brief:
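HK2 cells were seeded at 2000 per well in DMEM/F12 with 10% FBS and left to attach for 24 h at 37 °C, 5% CO2. They were then exposed for 24 h to 3-fold peptide dilutions starting from 600 μM solutions in quadruplicate. LDH release was read at 450 nm, and CC50 was fitted from dose-response curves.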
This is another data set of the same source.

A short description of series [10]: in vitro. Particulars: human. The method in brief: as §2
The source holds these as a separate data set.

In brackets after ≈: the same amount, converted by molar mass. Positions of bridges follow the written chain, without caps; N, C: chain ends. Non-standard residues stand in square brackets, D forms with d. Residues, ends and D or L forms follow the SMILES beside them. *: point of attachment. Decanoyl(3R-OH) = CCCCCCC[C@@H](O)CC(=O)*; dOrn = NCCC[C@@H](N)C(=O)O; dDab = NCC[C@@H](N)C(=O)O; X2 = CCC(C)CCC(O)CC(=O)*; dDap = NC[C@@H](N)C(=O)O; Dab = NCC[C@H](N)C(=O)O Some results are limits rather than exact numbers.

For the molecule `CCC(C)CCC(O)CC(=O)N[C@H](CCN)C(=O)N[C@H]1CCNC(=O)[C@H](CC(C)C)NC(=O)[C@H](CCN)NC(=O)[C@H](CCN)NC(=O)[C@H](Cc2ccccc2)NC(=O)[C@H](CC(C)C)NC(=O)[C@H](CCN)NC1=O` (stereo partly drawn) [compound 6371, nC5(6-Me)CH(OH)CH2CO-D-Dab-cyc[L-Dab-L-Dab-L-Leu-L-Phe-L-Dab-L-Dab-L-Leu]] (X2-[dDab][Dab][Dab]LF[Dab][Dab]L; lactam 2-C), the “MIC A. baumannii ATCC 19606” value against A. baumannii ATCC 19606 was over 32 µg/mL. For the same molecule, in series [1], the “MIC S. aureus ATCC 25923, MSSA” value is over 32 µg/mL. Further, the “MIC P. aeruginosa GN_105, PmxR” value in series [2] was over 32 µg/mL. The “MIC P. aeruginosa GN_043, PmxR” value in series [3] is over 32 µg/mL. Also, the “MIC K. pneumoniae GN_106, PmxR” value in [4] was over 32 µg/mL. Further, in series [5], the “MIC K. pneumoniae GN_102 PmxR” value is over 32 µg/mL. For the same molecule, in the series on E. coli ATCC 25922, the “MIC E. coli ATCC 25922” value was over 32 µg/mL. Further, in series [6], the “MIC K. pneumoniae ATCC 700603, MDR” value is over 32 µg/mL. In the series with K. pneumoniae ATCC 13883, the “MIC K. pneumoniae ATCC 13883” value is over 32 µg/mL. Besides, the “MIC A. baumannii GN_093 PmxR” value against A. baumannii GN_093 PmxR is over 32 µg/mL. Also, in series [7], the “MIC K. pneumoniae ATCC BAA-2146, NDM-1 pos” value is over 32 µg/mL. In the series on P. aeruginosa ATCC 27853, the “MIC P. aeruginosa ATCC 27853” value turned out to be 32 µg/mL (≈ 31.1 µM). In addition, the CC50 at 24 h in “in vitro [8]”, in “in vitro [9]” and in “in vitro [10]” was over 300 µM in each case.

For `CCCCCCC[C@@H](O)CC(=O)N[C@H](CN)C(=O)N[C@H]1CCNC(=O)[C@H](CC(C)C)NC(=O)[C@H](CCN)NC(=O)[C@H](CCN)NC(=O)[C@H](Cc2ccccc2)NC(=O)[C@@H](CC(C)C)NC(=O)[C@H](CCN)NC1=O` [compound 6427, 3(R)OH-nC9CO-D-Dap-cyc[L-Dab-L-Dab-D-Leu-L-Phe-L-Dab-L-Dab-L-Leu]] ({Decanoyl(3R-OH)}-[dDap][Dab][Dab][dL]F[Dab][Dab]L; lactam 2-C), the “MIC A. baumannii ATCC 19606” value in the series on A. baumannii ATCC 19606 is 8 µg/mL (≈ 7.76 µM). In [1], the “MIC S. aureus ATCC 25923, MSSA” value came out at 32 µg/mL (≈ 31.1 µM). In series [2], the “MIC P. aeruginosa GN_105, PmxR” value came out at 2 µg/mL (≈ 1.94 µM). For the same molecule, the “MIC P. aeruginosa GN_043, PmxR” value in series [3] was determined as 4 µg/mL (≈ 3.88 µM). Besides, the “MIC K. pneumoniae GN_106, PmxR” value in [4] was found to be 4 µg/mL (≈ 3.88 µM). Further, the “MIC K. pneumoniae GN_102 PmxR” value in series [5] stood at 4 µg/mL (≈ 3.88 µM). The “MIC E. coli ATCC 25922” value against E. coli ATCC 25922 came out at 8 µg/mL (≈ 7.76 µM). Also, the “MIC K. pneumoniae ATCC 700603, MDR” value in series [6] came out at 8 µg/mL (≈ 7.76 µM). In addition, in the series with K. pneumoniae ATCC 13883, the “MIC K. pneumoniae ATCC 13883” value is 8 µg/mL (≈ 7.76 µM). Moreover, the “MIC A. baumannii GN_093 PmxR” value in the series on A. baumannii GN_093 PmxR worked out at 16 µg/mL (≈ 15.5 µM). In addition, the “MIC K. pneumoniae ATCC BAA-2146, NDM-1 pos” value in series [7] was 8 µg/mL (≈ 7.76 µM). Besides, the “MIC P. aeruginosa ATCC 27853” value in the series with P. aeruginosa ATCC 27853 came to 4 µg/mL (≈ 3.88 µM). For the same molecule, the CC50 at 24 h was over 300 µM in the series “in vitro [8]”, 123 µM in “in vitro [9]” and over 300 µM in the series “in vitro [10]”.

On to `CCCCCCC[C@@H](O)CC(=O)N[C@H](CCCN)C(=O)N[C@H]1CCNC(=O)[C@H](CC(C)C)NC(=O)[C@H](CCN)NC(=O)[C@H](CCN)NC(=O)[C@H](Cc2ccccc2)NC(=O)[C@@H](CC(C)C)NC(=O)[C@H](CCN)NC1=O` [compound 6428, 3(R)OH-nC9CO-D-Orn-cyc[L-Dab-L-Dab-D-Leu-L-Phe-L-Dab-L-Dab-L-Leu]] ({Decanoyl(3R-OH)}-[dOrn][Dab][Dab][dL]F[Dab][Dab]L; lactam 2-C), for which the “MIC A. baumannii ATCC 19606” value against A. baumannii ATCC 19606 is 32 µg/mL (≈ 30.2 µM). Also, in [1], the “MIC S. aureus ATCC 25923, MSSA” value amounted to 32 µg/mL (≈ 30.2 µM). Further, in [2], the “MIC P. aeruginosa GN_105, PmxR” value was 4 µg/mL (≈ 3.78 µM). For the same molecule, in [3], the “MIC P. aeruginosa GN_043, PmxR” value came out at 4 µg/mL (≈ 3.78 µM). In addition, in series [4], the “MIC K. pneumoniae GN_106, PmxR” value worked out at 4 µg/mL (≈ 3.78 µM). Further, in series [5], the “MIC K. pneumoniae GN_102 PmxR” value was 2 µg/mL (≈ 1.89 µM). Also, the “MIC E. coli ATCC 25922” value in the series with E. coli ATCC 25922 was found to be 16 µg/mL (≈ 15.1 µM). In addition, the “MIC K. pneumoniae ATCC 700603, MDR” value in series [6] is 8 µg/mL (≈ 7.56 µM). For the same molecule, in the series on K. pneumoniae ATCC 13883, the “MIC K. pneumoniae ATCC 13883” value stood at 16 µg/mL (≈ 15.1 µM). For the same molecule, the “MIC A. baumannii GN_093 PmxR” value in the series with A. baumannii GN_093 PmxR was 16 µg/mL (≈ 15.1 µM). Further, in series [7], the “MIC K. pneumoniae ATCC BAA-2146, NDM-1 pos” value was 16 µg/mL (≈ 15.1 µM). Besides, in the series with P. aeruginosa ATCC 27853, the “MIC P. aeruginosa ATCC 27853” value came to 4 µg/mL (≈ 3.78 µM). Moreover, the CC50 at 24 h in “in vitro [8]” is over 300 µM; in “in vitro [9]”, 137 µM; in the series “in vitro [10]” it was over 300 µM.

For the origin of these results see patent publication US11279733B2, “Peptide antibiotics” (priority 2017, dated 2022).
